# Test results from patent US7348425B2, “Inhibitors of HCV replication” (Bristol-Myers Squibb Company, priority 2004, dated 2008).
# Where two headings read alike, the source gives them in different places.
# What was measured:
# [1] = target: T1, HCV NS5B RdRp genotype 1b (Hepatitis C virus genotype 1b, UniProt Q9WMX2); test: Standard HCV NS5B RdRp enzyme assay; format: biochemical; details: standard method
# T1 construct: The protein was expressed with an 18 amino acid C-terminal truncation to enhance the solubility; made in house; host or cells: E. coli BL21 (DE3), pET21a
# T1 sequence (Q9WMX2 2420-2992): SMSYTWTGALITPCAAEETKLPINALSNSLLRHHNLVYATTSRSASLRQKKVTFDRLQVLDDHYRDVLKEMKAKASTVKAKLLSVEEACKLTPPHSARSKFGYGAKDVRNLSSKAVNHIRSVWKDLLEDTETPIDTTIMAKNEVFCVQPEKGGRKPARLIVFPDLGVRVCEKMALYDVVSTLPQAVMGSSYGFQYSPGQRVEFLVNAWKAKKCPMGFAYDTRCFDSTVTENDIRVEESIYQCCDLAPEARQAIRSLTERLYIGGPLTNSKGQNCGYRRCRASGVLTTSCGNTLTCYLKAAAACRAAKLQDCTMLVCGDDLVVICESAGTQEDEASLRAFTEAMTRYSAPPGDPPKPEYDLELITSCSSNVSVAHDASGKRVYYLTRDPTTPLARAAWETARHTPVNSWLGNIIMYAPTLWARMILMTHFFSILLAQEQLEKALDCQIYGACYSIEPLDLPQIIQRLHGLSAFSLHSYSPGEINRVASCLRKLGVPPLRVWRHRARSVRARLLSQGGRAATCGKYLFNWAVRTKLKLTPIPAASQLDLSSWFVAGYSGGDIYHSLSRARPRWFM
# Protocol: HCVNS5B RdRp cloning, expression, and purification. The cDNA encoding the NS5B protein of HCV, genotype 1b, was cloned into the pET21a expression vector. The protein was expressed with an 18 amino acid C-terminal truncation to enhance the solubility. The E. coli competent cell line BL21 (DE3) was used for expression of the protein. Cultures were grown at 37° C. for ˜4 hours until the cultures reached an optical density of 2.0 at 600 nm. The cultures were cooled to 20° C. and induced with 1 mM IPTG. Fresh ampicillin was added to a final concentration of 50 μg/ml and the cells were grown overnight at 20° C.
# Cell pellets (3 L) were lysed for purification to yield 15-24 mgs of purified NS5B. The lysis buffer consisted of 20 mM Tris-HCl, pH 7.4, 500 mM NaCl, 0.5% triton X-100, 1 mM DTT, 1 mM EDTA, 20% glycerol, 0.5 mg/ml lysozyme, 10 mM MgCl2, 15 ug/ml deoxyribonuclease I, and Complete TM protease inhibitor tablets (Roche). After addition of the lysis buffer, frozen cell pellets were resuspended using a tissue homogenizer. To reduce the viscosity of the sample, aliquots of the lysate were sonicated on ice using a microtip attached to a Branson sonicator. The sonicated lysate was centrifuged at 100,000×g for 1 hr at 4° C. and filtered through a 0.2 μm filter unit (Corning).
# The protein was purified using three sequential chromatography steps: Heparin sepharose CL-6B, polyU sepharose 4B, and Hitrap SP sepharose (Pharmacia). The chromatography buffers were identical to the lysis buffer but contained no lysozyme, deoxyribonuclease I, MgCl2 or protease inhibitor and the NaCl concentration of the buffer was adjusted according to the requirements for charging the protein onto the column. Each column was eluted with a NaCl gradient which varied in length from 5-50 column volumes depending on the column type. After the final chromatography step, the resulting purity of the enzyme is >90% based on SDS-PAGE analysis. The enzyme was aliquoted and stored at −80° C.
# Standard HCV NS5B RdRp enzyme assay. HCV RdRp genotype Ib assays were run in a final volume of 60 μl in 96 well plates (Costar 3912). The assay buffer is composed of 20 mM Hepes, pH 7.5, 2.5 mM KCl, 2.5 mM MgCl2, 1 mM DTT, 1.6 U RNAse inhibitor (Promega N2515), 0.1 mg/ml BSA (Promega R3961), and 2% glycerol. All compounds were serially diluted (3-fold) in DMSO and diluted further in water such that the final concentration of DMSO in the assay was 2%. HCV RdRp genotype 1b enzyme was used at a final concentration of 28 nM. A polyA template was used at 6 nM, and a biotinylated oligo-dT12 primer was used at 180 nM final concentration. Template was obtained commercially (Amersham 27-4110). Biotinylated primer was prepared by Sigma Genosys. ^3H-UTP was used at 0.6 μCi (0.29 μM total UTP). Reactions were initiated by the addition of enzyme, incubated at 30° C. for 60 min, and stopped by adding 25 μl of 50 mM EDTA containing SPA beads (4 μg/μl, Amersham RPNQ 0007). Plates were read on a Packard Top Count NXT after >1 hr incubation at room temperature.
# The IC50 values for compounds were determined using seven different [I]. IC50 values were calculated from the inhibition using the formula y=A+((B−A)/(1+((C/x)^D))). FRET Assay Preparation. To perform the HCV FRET screening assay, 96-well cell culture plates were used. The FRET peptide (Anaspec, Inc.) (Taliani et al., Anal. Biochem. 240:60-67 (1996), hereby incorporated by reference in its entirety) contains a fluorescence donor, EDANS, near one end of the peptide and an acceptor, DABCYL, near the other end. The fluorescence of the peptide is quenched by […] resonance energy transfer (RET) between the donor and the acceptor, but as the NS3 protease cleaves the peptide the products are released from RET quenching and the fluorescence of the donor becomes apparent. […]
# HCV replicon = HCV replicon luciferase assay; format: cell-based, Hepatitis C virus; details: Hepatitis C virus
# Protocol: To prepare plates, HCV replicon cells, with or without a Renilla luciferase reporter gene, were trypsinized and placed into each well of a 96-well plate with titrated test compounds added in columns 3 through 12; columns 1 and 2 contained a control compound (HCV protease inhibitor), and the bottom row contained cells without compound. The plates were then placed in a CO2 incubator at 37 degrees C.
# Assays. Subsequent to addition of the test compounds described above (FRET Assay Preparation), at various times the plate was removed and Alamar blue solution (Trek Diagnostics, #00-100) was added per well as a measure of cellular toxicity. After reading in a Cytoflour 4000 instrument (PE Biosystems), plates were rinsed with PBS and then used for FRET assay by the addition of 30 ul of the FRET peptide assay reagent described above (FRET Assay Preparation) per well. The plate was then placed into the Cytoflour 4000 instrument which had been set to 340 excite/490 emission, automatic mode for 20 cycles and the plate read in a kinetic mode. Typically, the signal to noise using an endpoint analysis after the reads was at least three-fold. Alternatively, after Alamar blue reading, plates were rinsed with PBS, 50 ul of DMEM (high glucose) without phenol red was added and plates were then used for luciferase assay using the Promega Dual-Glo Luciferase Assay System.
# Compound analysis was determined by quantification of the relative HCV replicon inhibition and the relative cytotoxicity values. To calculate cytoxicity values, the average Alamar Blue fluorescence signals from the control wells were set as 100% non-toxic. The individual signals in each of the compound test wells were then divided by the average control signal and multiplied by 100% to determine […]. To calculate the HCV replicon inhibition values, an average background value was obtained from the two wells containing the highest amount of HCV protease inhibitor at the end of the assay period. These numbers were similar to those obtained from naïve Huh-7 cells.
# The background numbers were then subtracted from the average signal obtained from the control wells and this number was used as 100% activity. The individual signals in each of the compound test wells were then divided by the averaged control values after background subtraction and multiplied by 100% to determine percent activity. EC50 values for a protease inhibitor titration were calculated as the concentration which caused a 50% reduction in FRET or luciferase activity. The two numbers generated for the compound plate, percent cytoxicity and percent activity were used to determine compounds of interest for further analysis.
# [2] = target: T1, HCV NS5B RdRp genotype 1b; test: Modified HCV NS5B RdRp enzyme assay (with preincubation); format: biochemical; details: modified method (with preincubation)
# Summary of the method: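 Seven-point IC50s were derived from SPA-based ³H-UTP incorporation after 4 h at 30 °C (Hepes pH 7.5, 2% DMSO). Compound was first mixed with 14 nM Δ18 NS5B genotype 1b enzyme. Then 0.2 nM polyA, 0.29 μM UTP and bead-bound oligo-dT12 (20 nM) were added.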
# [3] = luciferase method, read-out: EC50
# [4] = cells marked **: Luciferase assay, read-out: EC50
Structure (SMILES),EC50 (HCV replicon; [3]) [nM],EC50 (HCV replicon; [4]) [nM],further results
COC(=O)/C=C/c1ccc(NC(=O)C2(NC(=O)c3ccc4c(C5CCCCC5)c5n(c4c3)CCOc3ccccc3-5)CCCC2)cc1,–,–,IC50 [1]: > 1000 nM
COC(=O)/C=C/c1ccc(NC(=O)C2(NC(=O)c3ccc4c(C5CCCCC5)c5n(c4c3)CCCc3occc3-5)CCCC2)cc1,100 to 1000,–,–
O=C(O)/C=C/c1ccc(NC(=O)C2(NC(=O)c3ccc4c(C5CCCCC5)c5n(c4c3)CCCc3occc3-5)CCCC2)cc1,< 100,–,–
O=C(O)c1ccc2c(C3CCCCC3)c3n(c2c1)CC(C(=O)N1CCN(c2ccncc2)CC1)Cc1ccccc1-3 (stereo not drawn),100 to 1000,–,IC50 [1]: 100 to 1000 nM
COC(=O)c1ccc2c(C3CCCCC3)c3n(c2c1)CC(C(=O)N1CCN(c2ccncc2)CC1)Cc1ccccc1-3 (stereo not drawn),100 to 1000,–,IC50 [1]: > 1000 nM
O=C(O)c1ccc2c(C3CCCCC3)c3n(c2c1)CC(C(=O)N1CCC(O)CC1)Cc1ccccc1-3 (stereo not drawn),100 to 1000,–,IC50 [1]: 100 to 1000 nM
O=C(O)c1ccc2c(C3CCCCC3)c3n(c2c1)CC(C(=O)N1CCOCC1)=Cc1ccccc1-3,–,–,IC50 [1]: 100 to 1000 nM; EC50 (HCV replicon): 100 to 1000 nM
COC(=O)c1ccc2c(C3CCCCC3)c3n(c2c1)CC(C(=O)N1CCOCC1)=Cc1ccccc1-3,1000 to 10000,–,IC50 [1]: > 1000 nM
O=C(O)c1ccc2c(C3CCCCC3)c3n(c2c1)CC(C(=O)N1CCN(c2ccncc2)CC1)=Cc1ccccc1-3,100 to 1000,–,IC50 [1]: 100 to 1000 nM
COC(=O)c1ccc2c(C3CCCCC3)c3n(c2c1)CC(C(=O)N1CCN(c2ccncc2)CC1)=Cc1ccccc1-3,1000 to 10000,–,IC50 [1]: > 1000 nM
O=C(O)/C=C/c1ccc(NC(=O)C2(NC(=O)c3ccc4c(C5CCCCC5)c5n(c4c3)CCCc3ccccc3-5)CCCC2)cc1,–,10 to 1000,IC50 [2]: 20 to 1000 nM
CCNC(=O)N(CCCN(C)C)C(=O)c1ccc2c(C3CCCCC3)c3n(c2c1)CCCc1ccccc1-3,–,1000 to 10000,–
CCOC(=O)/C=C/c1ccc(NC(=O)C2(NC(=O)c3ccc4c(C5CCCCC5)c5n(c4c3)C(OC)c3ccccc3-5)CCCC2)cc1 (stereo not drawn),–,1000 to 10000,–
COC1c2ccccc2-c2c(C3CCCCC3)c3ccc(C(=O)NC4(C(=O)Nc5ccc(/C=C/C(=O)O)cc5)CCCC4)cc3n21 (stereo not drawn),–,10 to 1000,IC50 [2]: 20 to 1000 nM
COC(=O)c1ccc2c(C3CCCCC3)c3n(c2c1)CC(=O)N3Cc1ccccc1,–,1000 to 10000,–
O=C(O)c1ccc2c(C3CCCCC3)c3n(c2c1)CC(=O)N3Cc1ccccc1,–,> 10000,–
COC(=O)c1ccc2c(C3CCCCC3)c3n(c2c1)CC(=O)N3,–,1000 to 10000,–
CC(C)(C)OC(=O)/C=C/c1ccc(NC(=O)C2(NC(=O)c3ccc4c(C5CCCCC5)c5n(c4c3)CC(=O)N5Cc3ccccc3)CCCC2)cc1,–,> 10000,–

Structure (SMILES),EC50 (HCV replicon; [3]) [nM],EC50 (HCV replicon; [4]) [nM],further results
CCOC(=O)/C=C/c1ccc(NC(=O)C2(NC(=O)c3ccc4c(C5CCCCC5)c5n(c4c3)CC(=O)Nc3ccccc3-5)CCCC2)cc1,–,10 to 1000,–
O=C(O)c1ccc2c(C3CCCCC3)c3n(c2c1)CC/C=C\Nc1ccccc1-3,–,1000 to 10000,–
Cn1c(-c2ccccc2)c(C2CCCCC2)c2ccc(C(=O)NC3(c4nnnn4CC(=O)O)CCCC3)cc21,–,> 10000,–
O=C(O)/C=C/c1ccc(NC(=O)C2(NC(=O)c3ccc4c(C5CCCCC5)c5n(c4c3)C/C=C\CNc3ccccc3-5)CCCC2)cc1,–,10 to 1000,IC50 [2]: 20 to 1000 nM
COC(=O)c1ccc2c(C3CCCCC3)c3n(c2c1)CC(=O)N3c1ccccc1,–,> 10000,–
O=C(O)c1ccc2c(C3CCCCC3)c3n(c2c1)CC(=O)N3c1ccccc1,–,> 10000,–
O=C1Cn2c(c(C3CCCCC3)c3ccc(C(=O)O)cc32)N1,–,> 10000,–
O=C(O)c1ccc2c(C3CCCCC3)c3n(c2c1)CCOc1ccccc1-3,–,10 to 1000,–
O=C(O)c1ccc2c(C3CCCCC3)c3n(c2c1)CCCn1ccnc1-3,–,> 10000,–
O=C(O)/C=C/c1ccc(NC(=O)C2(NC(=O)c3ccc4c(C5CCCCC5)c5n(c4c3)CCCn3ccnc3-5)CCCC2)cc1,–,1000 to 10000,IC50 [2]: 20 to 1000 nM
CCOC(=O)/C=C/c1ccc(NC(=O)C2(N(C)C(=O)c3ccc4c(C5CCCCC5)c5n(c4c3)CCCc3ccccc3-5)CCCC2)cc1,–,1000 to 10000,IC50 [2]: > 1000 nM
COC(=O)c1ccc2c(C3CCCCC3)c3n(c2c1)CC(NC(=O)N1CCOCC1)Cc1ccccc1-3 (stereo not drawn),–,1000 to 10000,–
"COC(=O)c1ccc2c(C3CCCCC3)c3n(c2c1)CC=Cc1ccccc1-3 [Example 1, Methyl 13-cyclohexyl-7H-indolo[2,1-a][2]benzazepine-10-carboxylate]",> 10000,–,–
"COC(=O)c1ccc2c(C3CCCCC3)c3n(c2c1)CC=Cc1cc(OCc2ccccc2)ccc1-3 [Example 4, Methyl 13-cyclohexyl-3-benzyloxy-7H-indolo[2,1-a][2]benzazepine-10-carboxylate]",> 10000,–,–
"COC(=O)c1ccc2c(C3CCCCC3)c3n(c2c1)CCCc1cc(O)ccc1-3 [Example 5, Methyl 13-cyclohexyl-3-hydroxy-6,7-dihydro-5H-indolo[2,1-a][2]benzazepine-10-carboxylate]",> 10000,–,–
"O=C(O)c1ccc2c(C3CCCCC3)c3n(c2c1)CCOc1cccnc1-3 [Example 13, 13-cyclohexyl-6,7-dihydropyrido[2′,3′:6,7][1,4]oxazepino[4,5-a]indole-10-carboxylic acid]",100 to 1000,–,–
CCOC(=O)c1cc2ccccc2c2c(C3CCCCC3)c3ccc(C(=O)OC)cc3n12 [drawing 141],–,> 10000,–
O=C(O)c1ccc2c(C3CCCCC3)c3n(c2c1)CC(C(=O)O)Cc1ccccc1-3 (stereo not drawn) [drawing 147],–,> 10000,–
